Source: PubChem BioAssay (NCI)
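Interpolation was linear, between the two tested concentrations surrounding the appropriate level; five concentrations were tested over 48 hours in 96-well plates. Here, GI50 denotes the concentration required for 50% inhibition of growth. At the TGI there is no net growth.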

Columns and labels:
Test in all cases: DTP human tumour cell line panel, 48 h
SW-620 colon = test system: SW-620 colon
LOX IMVI melanoma = test system: LOX IMVI melanoma
ACHN renal = test system: ACHN renal
M14 melanoma = test system: M14 melanoma
K-562 leukemia = test system: K-562 leukemia
MDA-MB-468 breast = test system: MDA-MB-468 breast
SK-OV-3 ovarian = test system: SK-OV-3 ovarian
CCRF-CEM leukemia = test system: CCRF-CEM leukemia
SNB-19 CNS = test system: SNB-19 CNS
OVCAR-8 ovarian = test system: OVCAR-8 ovarian
MCF7 breast = test system: MCF7 breast
T-47D breast = test system: T-47D breast
SF-295 CNS = test system: SF-295 CNS
RPMI-8226 leukemia = test system: RPMI-8226 leukemia
HCC-2998 colon = test system: HCC-2998 colon
HOP-62 NSCLC = test system: HOP-62 NSCLC
UACC-257 melanoma = test system: UACC-257 melanoma
MALME-3M melanoma = test system: MALME-3M melanoma
OVCAR-5 ovarian = test system: OVCAR-5 ovarian
HS 578T breast = test system: HS 578T breast
786-0 renal = test system: 786-0 renal
A549 NSCLC = test system: A549 NSCLC
SK-MEL-2 melanoma = test system: SK-MEL-2 melanoma
SF-539 CNS = test system: SF-539 CNS
OVCAR-4 ovarian = test system: OVCAR-4 ovarian
SR leukemia = test system: SR leukemia
HCT-116 colon = test system: HCT-116 colon
DU-145 prostate = test system: DU-145 prostate
SNB-75 CNS = test system: SNB-75 CNS
NCI-H23 lung = test system: NCI-H23 lung
OVCAR-3 ovarian = test system: OVCAR-3 ovarian
SK-MEL-5 melanoma = test system: SK-MEL-5 melanoma
MOLT-4 leukemia = test system: MOLT-4 leukemia
RXF 393 renal = test system: RXF 393 renal
PC-3 prostate = test system: PC-3 prostate
EKVX NSCLC = test system: EKVX NSCLC
COLO 205 colon = test system: COLO 205 colon
SK-MEL-28 melanoma = test system: SK-MEL-28 melanoma
MDA-MB-435 = test system: MDA-MB-435
U251 CNS = test system: U251 CNS
UO-31 renal = test system: UO-31 renal
TK-10 renal = test system: TK-10 renal
HL-60(TB) leukemia = test system: HL-60(TB) leukemia
NCI-H460 lung = test system: NCI-H460 lung
A498 renal = test system: A498 renal
HT29 colon = test system: HT29 colon
UACC-62 melanoma = test system: UACC-62 melanoma
MDA-MB-231 breast = test system: MDA-MB-231 breast
CAKI-1 renal = test system: CAKI-1 renal
BT-549 breast = test system: BT-549 breast
NCI-H226 lung = test system: NCI-H226 lung
HCT-15 colon = test system: HCT-15 colon
NCI-H522 lung = test system: NCI-H522 lung
SF-268 CNS = test system: SF-268 CNS
SN12C renal = test system: SN12C renal
IGROV1 ovarian = test system: IGROV1 ovarian
HOP-92 NSCLC = test system: HOP-92 NSCLC
KM12 colon = test system: KM12 colon

SMILES: COc1cccc(NC(=O)c2ccc(NC(=O)CCl)s2)c1
- GI50 (SW-620 colon): 13.4 µM
- TGI (SW-620 colon): 30.5 µM
- GI50 (LOX IMVI melanoma): 11.4 µM
- TGI (LOX IMVI melanoma): 25.1 µM
- GI50 (ACHN renal): 17.4 µM
- TGI (ACHN renal): 35.9 µM
- GI50 (M14 melanoma): 16.3 µM
- TGI (M14 melanoma): 39.4 µM
- GI50 (K-562 leukemia): 16.4 µM
- TGI (K-562 leukemia): > 100 µM
- GI50 (MDA-MB-468 breast): 14.2 µM
- TGI (MDA-MB-468 breast): 30.6 µM
- GI50 (SK-OV-3 ovarian): 27 µM
- TGI (SK-OV-3 ovarian): 66.5 µM
- GI50 (CCRF-CEM leukemia): 6.87 µM
- TGI (CCRF-CEM leukemia): 51.2 µM
- GI50 (SNB-19 CNS): 21.8 µM
- TGI (SNB-19 CNS): 65.8 µM
- GI50 (OVCAR-8 ovarian): 18.5 µM
- TGI (OVCAR-8 ovarian): 39.3 µM
- GI50 (MCF7 breast): 20.1 µM
- TGI (MCF7 breast): 66.4 µM
- GI50 (T-47D breast): 34.5 µM
- TGI (T-47D breast): > 100 µM
- GI50 (SF-295 CNS): 46.6 µM
- TGI (SF-295 CNS): > 100 µM
- GI50 (RPMI-8226 leukemia): 18.7 µM
- TGI (RPMI-8226 leukemia): 46.8 µM
- GI50 (HCC-2998 colon): 47.8 µM
- TGI (HCC-2998 colon): > 100 µM
- GI50 (HOP-62 NSCLC): 56.7 µM
- TGI (HOP-62 NSCLC): > 100 µM
- GI50 (UACC-257 melanoma): 55.3 µM
- TGI (UACC-257 melanoma): > 100 µM
- GI50 (MALME-3M melanoma): 12.5 µM
- TGI (MALME-3M melanoma): 28.5 µM
- GI50 (OVCAR-5 ovarian): 21 µM
- TGI (OVCAR-5 ovarian): 46.8 µM
- GI50 (HS 578T breast): 20.3 µM
- TGI (HS 578T breast): 61.1 µM
- GI50 (786-0 renal): 17.1 µM
- TGI (786-0 renal): 33 µM
- GI50 (A549 NSCLC): 21.7 µM
- TGI (A549 NSCLC): 53.9 µM
- GI50 (SK-MEL-2 melanoma): 28.6 µM
- TGI (SK-MEL-2 melanoma): > 100 µM
- GI50 (SF-539 CNS): 16.7 µM
- TGI (SF-539 CNS): 31 µM
- GI50 (OVCAR-4 ovarian): 39.2 µM
- TGI (OVCAR-4 ovarian): > 100 µM
- GI50 (SR leukemia): 4.92 µM
- TGI (SR leukemia): 56.2 µM
- GI50 (HCT-116 colon): 22.4 µM
- TGI (HCT-116 colon): 88.9 µM
- GI50 (DU-145 prostate): 36.4 µM
- TGI (DU-145 prostate): > 100 µM
- GI50 (SNB-75 CNS): 11.7 µM
- TGI (SNB-75 CNS): > 100 µM
- GI50 (NCI-H23 lung): 17.2 µM
- TGI (NCI-H23 lung): 35.5 µM
- GI50 (OVCAR-3 ovarian): 16.7 µM
- TGI (OVCAR-3 ovarian): 33.8 µM
- GI50 (SK-MEL-5 melanoma): 17.4 µM
- TGI (SK-MEL-5 melanoma): 34.6 µM
- GI50 (MOLT-4 leukemia): 12.5 µM
- TGI (MOLT-4 leukemia): 55.8 µM
- GI50 (RXF 393 renal): 13.6 µM
- TGI (RXF 393 renal): 36.9 µM
- GI50 (PC-3 prostate): 14.9 µM
- TGI (PC-3 prostate): 34.9 µM
- GI50 (EKVX NSCLC): 26.4 µM
- TGI (EKVX NSCLC): > 100 µM
- GI50 (COLO 205 colon): 27.9 µM
- TGI (COLO 205 colon): 70.8 µM
- GI50 (SK-MEL-28 melanoma): 20.6 µM
- TGI (SK-MEL-28 melanoma): 52.6 µM
- GI50 (MDA-MB-435): 18.6 µM
- TGI (MDA-MB-435): 60.9 µM
- GI50 (U251 CNS): 16.8 µM
- TGI (U251 CNS): 31.5 µM
- GI50 (UO-31 renal): 13.7 µM
- TGI (UO-31 renal): 27.6 µM
- GI50 (TK-10 renal): > 100 µM
- TGI (TK-10 renal): > 100 µM
- GI50 (HL-60(TB) leukemia): 17.4 µM
- TGI (HL-60(TB) leukemia): 99 µM
- GI50 (NCI-H460 lung): 20.8 µM
- TGI (NCI-H460 lung): 45.2 µM
- GI50 (A498 renal): > 100 µM
- TGI (A498 renal): > 100 µM
- GI50 (HT29 colon): 20.3 µM
- TGI (HT29 colon): 44.2 µM
- GI50 (UACC-62 melanoma): 15.3 µM
- TGI (UACC-62 melanoma): 29.2 µM
- GI50 (MDA-MB-231 breast): 15.6 µM
- TGI (MDA-MB-231 breast): 32.6 µM
- GI50 (CAKI-1 renal): 16.1 µM
- TGI (CAKI-1 renal): 42 µM
- GI50 (BT-549 breast): 12.2 µM
- TGI (BT-549 breast): 29.1 µM
- GI50 (NCI-H226 lung): 15.8 µM
- TGI (NCI-H226 lung): 39.2 µM
- GI50 (HCT-15 colon): 11.3 µM
- TGI (HCT-15 colon): 40.5 µM
- GI50 (NCI-H522 lung): 13.9 µM
- TGI (NCI-H522 lung): 30.8 µM
- GI50 (SF-268 CNS): 25 µM
- TGI (SF-268 CNS): > 100 µM
- GI50 (SN12C renal): 16.1 µM
- TGI (SN12C renal): 33.2 µM
- GI50 (IGROV1 ovarian): 16.8 µM
- TGI (IGROV1 ovarian): 35.5 µM
- GI50 (HOP-92 NSCLC): 15.4 µM
- TGI (HOP-92 NSCLC): 34.7 µM
- GI50 (KM12 colon): 21.2 µM
- TGI (KM12 colon): 54.1 µM
